Experimental data published in patent publication US11034685B2, “Aminopyridine derivatives as TAM family kinase inhibitors” (SignalChem Lifesciences Corporation, priority 2013, dated 2021).

How the values were obtained:
Type in all cases: biochemical
human Axl (473-end) = target: T1, human Axl (473-end) (Homo sapiens, UniProt P30530); test: Kinase enzymatic activity assay ([33P]-ATP phosphate transfer), Axl; conditions: inhibitory activity on Axl; class symbols
T1 construct: GST (N); made in house; host or cells: Sf9 insect cells (baculovirus)
T1 sequence (P30530 473-894 limits assumed): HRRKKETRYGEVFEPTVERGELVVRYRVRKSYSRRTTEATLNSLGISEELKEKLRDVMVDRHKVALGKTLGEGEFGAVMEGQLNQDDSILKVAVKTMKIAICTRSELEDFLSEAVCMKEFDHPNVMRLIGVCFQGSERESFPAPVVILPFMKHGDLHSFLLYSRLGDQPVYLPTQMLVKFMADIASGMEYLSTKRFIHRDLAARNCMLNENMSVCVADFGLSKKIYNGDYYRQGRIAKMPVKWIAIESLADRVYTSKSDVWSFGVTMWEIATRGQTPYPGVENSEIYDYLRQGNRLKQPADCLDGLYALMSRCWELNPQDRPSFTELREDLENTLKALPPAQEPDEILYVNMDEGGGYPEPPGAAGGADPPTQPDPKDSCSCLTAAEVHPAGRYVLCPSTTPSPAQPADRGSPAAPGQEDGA
Summary of the method: (§1)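 Kinases were N-terminal GST-tagged constructs expressed in Sf9 cells, with poly(Glu:Tyr 4:1) as substrate. Reactions ran in MOPS buffer pH 7.2 with MgCl2 and [33P]-ATP (250 μM cocktail stock) for 30 min at room temperature. Filter-bound radioactivity gave % inhibition, and IC50 was taken from serial dilutions.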

human Mer (578-872) = target: T2, human Mer (578-872) (Homo sapiens, UniProt Q12866); test: Kinase enzymatic activity assay ([33P]-ATP phosphate transfer), Mer; conditions: inhibitory activity on Mer; class symbols
T2 construct: GST (N); made in house; host or cells: Sf9 insect cells (baculovirus)
T2 sequence (Q12866 578-872): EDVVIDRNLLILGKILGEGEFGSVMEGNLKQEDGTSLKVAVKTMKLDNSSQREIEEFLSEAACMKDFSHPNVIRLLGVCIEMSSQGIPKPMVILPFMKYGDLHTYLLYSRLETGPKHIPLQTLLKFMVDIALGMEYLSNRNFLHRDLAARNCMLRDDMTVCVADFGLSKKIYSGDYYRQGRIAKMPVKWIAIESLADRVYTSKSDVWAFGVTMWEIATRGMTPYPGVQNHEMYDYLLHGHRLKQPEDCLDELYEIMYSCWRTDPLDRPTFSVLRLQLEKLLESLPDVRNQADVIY
Summary of the method: as §1

[1] = target: T3, Recombinant human Tyro3 (455-end) (Homo sapiens, UniProt Q06418); test: Kinase enzymatic activity assay ([33P]-ATP phosphate transfer), Tyro3; conditions: inhibitory activity on Tyro3; class symbols
T3 construct: GST (N); made in house; host or cells: Sf9 insect cells (baculovirus)
T3 sequence (Q06418 455-890 limits assumed): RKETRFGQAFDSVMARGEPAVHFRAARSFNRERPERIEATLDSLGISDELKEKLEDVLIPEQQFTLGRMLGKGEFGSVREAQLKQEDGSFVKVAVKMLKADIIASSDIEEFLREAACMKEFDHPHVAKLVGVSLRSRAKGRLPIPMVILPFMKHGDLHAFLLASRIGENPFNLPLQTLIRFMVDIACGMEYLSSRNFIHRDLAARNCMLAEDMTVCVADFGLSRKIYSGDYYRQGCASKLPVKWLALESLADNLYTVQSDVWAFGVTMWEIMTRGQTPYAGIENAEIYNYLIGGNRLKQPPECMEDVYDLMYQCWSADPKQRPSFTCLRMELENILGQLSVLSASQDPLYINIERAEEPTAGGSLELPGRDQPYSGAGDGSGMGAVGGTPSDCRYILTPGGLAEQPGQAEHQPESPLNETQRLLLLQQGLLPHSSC
Summary of the method: as §1

| SMILES | IC50 (human Axl (473-end)) [nM] | IC50 (human Mer (578-872)) [nM] | IC50 [1] [nM] |
| --- | --- | --- | --- |
| Nc1ncc(-c2cnn(C3CCN(C(=O)c4ccccc4)CC3)c2)cc1-c1nc(-c2ccccc2)no1 [(4-(4-(6-amino-5-(3-phenyl-1,2,4-oxadiazol-5-yl)pyridin-3-yl)-1H-pyrazol-1-yl)piperidin-1-yl)(phenyl)methanone] | 1000 to 10000 | 1000 to 10000 | 1000 to 10000 |
| Nc1ncc(-c2cnn(C3CCN(C(=O)C4CC4)CC3)c2)cc1-c1nnc(-c2c(Cl)cccc2Cl)o1 [(4-(4-(6-amino-5-(5-(2,6-dichlorophenyl)-1,3,4-oxadiazol-2-yl)pyridin-3-yl)-1H-pyrazol-1-yl)piperidin-1-yl)(cyclopropyl)methanone] | < 500 | 1000 to 10000 | < 500 |
| Nc1ncc(-c2cnn(C3CCN(C(=O)c4ccccc4)CC3)c2)cc1-c1nnc(-c2c(Cl)cccc2Cl)o1 [(4-(4-(6-amino-5-(5-(2,6-dichlorophenyl)-1,3,4-oxadiazol-2-yl)pyridin-3-yl)-1H-pyrazol-1-yl)piperidin-1-yl)(phenyl)methanone] | < 500 | < 500 | < 500 |
| Nc1ncc(-c2cnn(C3CCN(C(=O)c4ccc(F)cc4)CC3)c2)cc1-c1ncc(-c2cccc(Cl)c2)o1 [(4-(4-(6-amino-5-(5-(3-chlorophenyl)oxazol-2-yl)pyridin-3-yl)-1H-pyrazol-1-yl)piperidin-1-yl)(4-fluorophenyl)methanone] | < 500 | 1000 to 10000 | < 500 |
| Nc1ncc(-c2cnn(C3CCN(C(=O)C4CC4)CC3)c2)cc1-c1ncc(-c2cccc(Cl)c2)o1 [(4-(4-(6-amino-5-(5-(3-chlorophenyl)oxazol-2-yl)pyridin-3-yl)-1H-pyrazol-1-yl)piperidin-1-yl)(cyclopropyl)methanone] | < 500 | 1000 to 10000 | 500 to 1000 |
| Nc1ncc(-c2cnn(C3CCN(C(=O)C4CC4)CC3)c2)cc1-c1ncc(-c2ccc(Cl)cc2)o1 [(4-(4-(6-amino-5-(5-(4-chlorophenyl)oxazol-2-yl)pyridin-3-yl)-1H-pyrazol-1-yl)piperidin-1-yl)(cyclopropyl)methanone] | < 500 | > 10000 | < 500 |
| Nc1ncc(-c2cnn(C3CCN(C(=O)c4ccccc4)CC3)c2)cc1-c1ncc(-c2ccc(Cl)cc2)o1 [(4-(4-(6-amino-5-(5-(4-chlorophenyl)oxazol-2-yl)pyridin-3-yl)-1H-pyrazol-1-yl)piperidin-1-yl)(phenyl)methanone] | < 500 | 1000 to 10000 | < 500 |
| CC(C)(C)OC(=O)N1CCC(n2cc(-c3cnc(N)c(-c4nnc(-c5nc(C(F)(F)F)cs5)o4)c3)cn2)CC1 [tert-butyl 4-(4-(6-amino-5-(5-(4-(trifluoromethyl)-thiazol-2-yl)-1,3,4-oxadiazol-2-yl)pyridin-3-yl)-1H-pyrazol-1-yl)piperidine-1-carboxylate] | < 500 | > 10000 | 1000 to 10000 |
| CC(C)(C)OC(=O)N1CCC(n2cc(-c3cnc(N)c(-c4ncc(-c5ccc(Cl)cc5)o4)c3)cn2)CC1 [tert-butyl 4-(4-(6-amino-5-(5-(4-chlorophenyl)oxazol-2-yl)pyridin-3-yl)-1H-pyrazol-1-yl)piperidine-1-carboxylate] | 500 to 1000 | 1000 to 10000 | 1000 to 10000 |
| CC(C)(C)OC(=O)N1CCC(n2cc(-c3cnc(N)c(-c4nnc(-c5ccc(F)cc5)o4)c3)cn2)CC1 [tert-butyl 4-(4-(6-amino-5-(5-(4-fluorophenyl)-1,3,4-oxadiazol-2-yl)pyridin-3-yl)-1H-pyrazol-1-yl)piperidine-1-carboxylate] | 1000 to 10000 | 1000 to 10000 | 1000 to 10000 |
| CC(C)(C)OC(=O)N1CCC(n2cc(-c3cnc(N)c(-c4nnc(CC5CC5)o4)c3)cn2)CC1 [tert-butyl 4-(4-(6-amino-5-(5-(cyclopropylmethyl)-1,3,4-oxadiazol-2-yl)pyridin-3-yl)-1H-pyrazol-1-yl)piperidine-1-carboxylate] | < 500 | 500 to 1000 | 1000 to 10000 |
| CC(C)(C)OC(=O)N1CCC(n2cc(-c3cnc(N)c(-c4nnc(-c5cnccn5)o4)c3)cn2)CC1 [tert-butyl 4-(4-(6-amino-5-(5-(pyrazin-2-yl)-1,3,4-oxadiazol-2-yl)pyridin-3-yl)-1H-pyrazol-1-yl)piperidine-1-carboxylate] | < 500 | 1000 to 10000 | 1000 to 10000 |
| CC(C)(C)OC(=O)N1CCC(n2cc(-c3cnc(N)c(-c4nnc(-c5ccccn5)o4)c3)cn2)CC1 [tert-butyl 4-(4-(6-amino-5-(5-(pyridin-2-yl)-1,3,4-oxadiazol-2-yl)pyridin-3-yl)-1H-pyrazol-1-yl)piperidine-1-carboxylate] | < 500 | 1000 to 10000 | 1000 to 10000 |
| CC(C)(C)OC(=O)N1CCC(n2cc(-c3cnc(N)c(-c4nnc(-c5cccnc5)o4)c3)cn2)CC1 [tert-butyl 4-(4-(6-amino-5-(5-(pyridin-3-yl)-1,3,4-oxadiazol-2-yl)pyridin-3-yl)-1H-pyrazol-1-yl)piperidine-1-carboxylate] | 500 to 1000 | 1000 to 10000 | 1000 to 10000 |
| CC(C)(C)OC(=O)N1CCC(n2cc(-c3cnc(N)c(-c4nnc(-c5nccs5)o4)c3)cn2)CC1 [tert-butyl 4-(4-(6-amino-5-(5-(thiazol-2-yl)-1,3,4-oxadiazol-2-yl)pyridin-3-yl)-1H-pyrazol-1-yl)piperidine-1-carboxylate] | 500 to 1000 | 1000 to 10000 | 1000 to 10000 |
| CC(C)(C)OC(=O)N1CCC(n2cc(-c3cnc(N)c(-c4nnc(Cc5ccccc5)o4)c3)cn2)CC1 [tert-butyl 4-(4-(6-amino-5-(5-benzyl-1,3,4-oxadiazol-2-yl)pyridin-3-yl)-1H-pyrazol-1-yl)piperidine-1-carboxylate] | < 500 | 1000 to 10000 | 1000 to 10000 |
| CC(C)(C)OC(=O)N1CCC(n2cc(-c3cnc(N)c(-c4nnc(-c5ccccc5)o4)c3)cn2)CC1 [tert-butyl 4-(4-(6-amino-5-(5-phenyl-1,3,4-oxadiazol-2-yl)pyridin-3-yl)-1H-pyrazol-1-yl)piperidine-1-carboxylate] | 1000 to 10000 | 1000 to 10000 | 1000 to 10000 |
| CC(C)(C)OC(=O)N1CCC(n2cc(-c3cnc(N)c(-c4ncc(-c5ccccc5)o4)c3)cn2)CC1 [tert-butyl 4-(4-(6-amino-5-(5-phenyloxazol-2-yl)pyridin-3-yl)-1H-pyrazol-1-yl)piperidine-1-carboxylate] | < 500 | 1000 to 10000 | 500 to 1000 |
